Measurements: ChEMBL document CHEMBL5257024, “Synthesis of α,β-Unsaturated Carbonyl-Based Compounds, Oxime and Oxime Ether Analogs as Potential Anticancer Agents for Overcoming Cancer Multidrug Resistance by Modulation of Efflux Pumps in Tumor Cells” (J Med Chem, 2016)
Active and inactive are the calls of the source. The rule behind the calls is not given here.

Experiments:
L5178Y [1] = experiment: Reversal of multidrug resistance in mouse L5178Y cells transfected with human MDR1 assessed as reversal of rhodamine 123 accumulation at 50 ug/ml incubated for 30 mins by flow cytometry; format: functional, cell-based; details: dose 50.0 µg/ml
PC-3 = experiment: cells; details: Homo sapiens, PC-3, 48 h
Description: Antiproliferative activity against human PC-3 cells assessed as inhibition of cell growth incubated for 48 hrs by propidium iodide staining based fluorometer assay

Tubulin (Sus scrofa) = Tubulin (Sus scrofa) (UniProt P02554+P02550); experiment: Inhibition of pig brain tubulin polymerization at 25 uM measured after 15 mins by fluorescence based turbidimetry; format: tissue-based
HT-29 = experiment: cells; details: Homo sapiens, HT-29, 48 h
Description: Antiproliferative activity against human HT-29 cells assessed as inhibition of cell growth incubated for 48 hrs by propidium iodide staining based fluorometer assay

PANC-1 = experiment: cells; details: Homo sapiens, PANC-1, 48 h
Description: Antiproliferative activity against human PANC-1 cells assessed as inhibition of cell growth incubated for 48 hrs by propidium iodide staining based fluorometer assay

A549 = experiment: Antiproliferative activity against human A549 cells assessed as inhibition of cell growth incubated for 48 hrs by propidium iodide staining based fluorometer assay; format: functional; details: A549, 48 h
MCF7 = experiment: Antiproliferative activity against human MCF7 cells assessed as inhibition of cell growth incubated for 48 hrs by propidium iodide staining based fluorometer assay; format: functional; details: MCF7, 48 h
[2] = molecular target: Epidermal growth factor receptor (Homo sapiens, UniProt P00533); experiment: Inhibition of recombinant 6His-tagged EGFR cytoplasmic domain (645 to 1186 residues) (unknown origin) autophosphorylation expressed in baculovirus infected Sf9 insect cells preincubated for 10 mins followed by ATP and MgCl2 addition measured after 60 mins by DELFIA/time-resolved fluorometric analysis
Sus scrofa = organism: Sus scrofa; experiment: Induction of pig brain microtubule stabilization at 25 uM measured after 15 mins by fluorescence based turbidimetry; format: tissue-based
L5178Y [3] = experiment: Reversal of multidrug resistance in mouse L5178Y cells transfected with human MDR1 assessed as reversal of rhodamine 123 accumulation at 5 ug/ml incubated for 30 mins by flow cytometry; format: functional, cell-based; details: dose 5.0 µg/ml
NCI-H460 = experiment: cells; details: Homo sapiens, NCI-H460, 48 h
Description: Antiproliferative activity against human NCI-H460 cells assessed as inhibition of cell growth incubated for 48 hrs by propidium iodide staining based fluorometer assay

[4] = Cytotoxicity against human MCF-10A cells assessed as cell viability incubated for 96 hrs by MTT assay; format: toxicity, cell-based; parameters: concentration or dose not given beside the values; details: read-out: Activity
[5] = Toxicity in mouse L5178Y cells transfected with human MDR1 at 50 ug/ml after short period of incubation by tryptan blue assay; format: cell-based; details: dose 50 µg/ml
MIA PaCa-2 = experiment: Antiproliferative activity against human MIA PaCa-2 cells assessed as inhibition of cell growth incubated for 48 hrs by propidium iodide staining based fluorometer assay; format: functional; details: MIA PaCa-2, 48 h
[6] = Inhibition of full length mouse GST-tagged BRAF V600E mutant preincubated for 60 mins followed by addition of N-terminal His-tagged full length human MEK1 incubated for 25 mins in presence of ATP by ELISA assay

Tubulin (Sus scrofa), sequence (P02550 whole entry, looked up): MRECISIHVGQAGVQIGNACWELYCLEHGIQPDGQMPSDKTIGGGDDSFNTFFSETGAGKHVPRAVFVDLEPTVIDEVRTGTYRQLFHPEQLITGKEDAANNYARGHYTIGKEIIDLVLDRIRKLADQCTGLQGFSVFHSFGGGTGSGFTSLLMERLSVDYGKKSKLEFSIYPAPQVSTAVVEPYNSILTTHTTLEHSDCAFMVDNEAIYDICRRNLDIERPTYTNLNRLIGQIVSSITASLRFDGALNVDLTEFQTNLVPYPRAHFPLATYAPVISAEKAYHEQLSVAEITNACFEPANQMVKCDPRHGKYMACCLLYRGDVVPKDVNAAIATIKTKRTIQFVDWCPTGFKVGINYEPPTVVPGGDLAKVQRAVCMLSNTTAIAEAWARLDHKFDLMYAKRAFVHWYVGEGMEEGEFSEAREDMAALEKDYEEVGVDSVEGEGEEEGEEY
Tubulin (Sus scrofa), sequence (P02554 whole entry, looked up): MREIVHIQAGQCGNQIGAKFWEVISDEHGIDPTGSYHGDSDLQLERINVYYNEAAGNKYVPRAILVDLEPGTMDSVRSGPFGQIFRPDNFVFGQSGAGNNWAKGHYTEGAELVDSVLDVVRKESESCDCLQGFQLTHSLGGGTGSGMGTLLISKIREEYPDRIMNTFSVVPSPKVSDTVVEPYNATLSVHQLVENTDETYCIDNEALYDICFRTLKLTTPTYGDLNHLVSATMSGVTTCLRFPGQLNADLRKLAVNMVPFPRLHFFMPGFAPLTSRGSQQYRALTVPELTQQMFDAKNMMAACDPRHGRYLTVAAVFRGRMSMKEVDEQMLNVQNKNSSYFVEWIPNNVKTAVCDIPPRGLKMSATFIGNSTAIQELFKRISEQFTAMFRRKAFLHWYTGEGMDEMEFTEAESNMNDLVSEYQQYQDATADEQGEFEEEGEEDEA
Epidermal growth factor receptor, sequence (P00533 whole entry, the tested form may be a part): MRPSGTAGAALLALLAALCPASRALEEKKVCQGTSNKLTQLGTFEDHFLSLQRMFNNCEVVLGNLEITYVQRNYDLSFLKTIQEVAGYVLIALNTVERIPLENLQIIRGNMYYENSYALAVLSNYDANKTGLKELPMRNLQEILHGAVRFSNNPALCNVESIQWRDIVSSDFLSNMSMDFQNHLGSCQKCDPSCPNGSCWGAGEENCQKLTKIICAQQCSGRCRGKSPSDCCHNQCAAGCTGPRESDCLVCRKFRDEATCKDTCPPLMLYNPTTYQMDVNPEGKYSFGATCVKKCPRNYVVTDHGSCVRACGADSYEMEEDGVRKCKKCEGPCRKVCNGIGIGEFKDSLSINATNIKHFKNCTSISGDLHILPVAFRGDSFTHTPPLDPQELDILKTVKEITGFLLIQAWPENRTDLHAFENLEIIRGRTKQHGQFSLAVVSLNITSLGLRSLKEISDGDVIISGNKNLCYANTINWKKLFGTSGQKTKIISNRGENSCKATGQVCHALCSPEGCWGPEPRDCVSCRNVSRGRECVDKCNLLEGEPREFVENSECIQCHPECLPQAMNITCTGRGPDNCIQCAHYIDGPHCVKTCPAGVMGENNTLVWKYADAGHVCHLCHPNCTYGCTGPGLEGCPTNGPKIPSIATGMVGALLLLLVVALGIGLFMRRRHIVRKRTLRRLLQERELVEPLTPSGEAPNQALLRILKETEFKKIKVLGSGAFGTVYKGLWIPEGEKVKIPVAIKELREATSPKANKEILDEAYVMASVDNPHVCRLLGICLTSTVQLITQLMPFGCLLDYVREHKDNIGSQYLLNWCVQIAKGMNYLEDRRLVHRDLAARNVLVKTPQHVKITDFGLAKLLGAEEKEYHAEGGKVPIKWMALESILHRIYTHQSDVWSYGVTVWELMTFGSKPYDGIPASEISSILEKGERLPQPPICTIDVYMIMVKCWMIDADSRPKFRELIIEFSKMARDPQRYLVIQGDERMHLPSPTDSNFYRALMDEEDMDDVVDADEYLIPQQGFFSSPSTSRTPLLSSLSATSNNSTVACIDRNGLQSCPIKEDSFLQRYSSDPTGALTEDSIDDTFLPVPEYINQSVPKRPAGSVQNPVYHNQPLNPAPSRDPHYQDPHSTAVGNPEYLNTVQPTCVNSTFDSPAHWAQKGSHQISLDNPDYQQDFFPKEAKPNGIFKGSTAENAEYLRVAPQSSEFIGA

Structure (SMILES)	Activity (L5178Y [1])	IC50 (PC-3)	inhibition (Tubulin (Sus scrofa))	IC50 (HT-29)	IC50 (PANC-1)	IC50 (A549)	IC50 (MCF7)	IC50 [2]	Activity (Sus scrofa)	Activity (L5178Y [3])	IC50 (NCI-H460)	viability at 96 h [4]	Activity [5]	IC50 (MIA PaCa-2)	IC50 [6]
COc1cc(/C=C2\CC(C)c3ccccc3\C2=N\O)c(Br)c(OC)c1OC (stereo unspecified)	Active	1.9 µM	Active	2.1 µM	2 µM	2.2 µM	2.5 µM	3.2 µM	inactive	inactive	1.9 µM	98%	Non-Toxic	2.6 µM	2.4 µM
COc1cc(/C=C2\CCc3c(O)cccc3\C2=N\O)c(Br)c(OC)c1OC	Active	2.3 µM	Active	1.1 µM	1.5 µM	2 µM	1.4 µM	4.6 µM	inactive	inactive	1.3 µM	90%	Non-Toxic	1.2 µM	1.7 µM
COc1ccc2c(c1)CCC(=C\c1cc(OC)c(OC)c(OC)c1Br)/C2=N\O	Active	1.4 µM	Active	1.7 µM	1 µM	1.2 µM	0.8 µM	2.1 µM	inactive	inactive	1.1 µM	92%	Non-Toxic	1.2 µM	1.9 µM
CCN(CC)CCON=C1/C(=C/c2cc(OC)c(OC)c(OC)c2Br)CC(C)C/C1=C\c1cc(OC)c(OC)c(OC)c1Br (stereo unspecified)		4.7 µM		4.5 µM	4.2 µM	4.1 µM	4.1 µM		inactive		4.1 µM	94%		4.9 µM	
COc1cc(/C=C2\CCc3ccccc3C2=O)c(Br)c(OC)c1OC		22 µM		21.2 µM	21.3 µM	22.6 µM	20.4 µM				22.2 µM	94%		23.7 µM	
COc1ccc(/C=C2\CCC/C(=C\c3ccc(OC)c(OC)c3Cl)C2=O)c(Cl)c1OC		5.2 µM		3.7 µM	4.2 µM	3.9 µM	4.7 µM				4.1 µM	90%		4.2 µM	
COc1cc(/C=C2\CCc3ccc(F)cc3C2=O)c(Br)c(OC)c1OC		10.3 µM		9.6 µM	8.5 µM	8.2 µM	10.1 µM				8.9 µM	93%		8.9 µM	
COc1ccc(/C=C2\COC/C(=C\c3ccc(OC)c(OC)c3Cl)C2=O)c(Cl)c1OC		5.1 µM		5.1 µM	5.8 µM	5.8 µM	5.6 µM				5.3 µM	89%		5.2 µM	
COc1cc(/C=C2\CNC/C(=C\c3cc(OC)c(OC)c(OC)c3Br)C2=O)c(Br)c(OC)c1OC		4.8 µM		4.5 µM	4.2 µM	4.4 µM	4 µM				4.9 µM	96%		4.3 µM	
COc1ccc(/C=C2\CCc3ccc(F)cc3C2=O)c(Cl)c1OC		9.3 µM		9.4 µM	9.8 µM	10.9 µM	9.8 µM				10.6 µM	95%		9.6 µM	
COc1ccc(/C=C2\CC(C)c3ccccc3C2=O)c(Cl)c1OC (stereo unspecified)		7.3 µM		7.2 µM	7.5 µM	7.7 µM	7.2 µM				7.9 µM	99%		7.2 µM	
COc1cccc2c1CC/C(=C\c1ccc(OC)c(OC)c1Cl)C2=O		7.2 µM		6.7 µM	6.9 µM	6.7 µM	6.4 µM				6.4 µM	95%		6.7 µM	
COc1ccc(/C=C2\CCc3ccc(Cl)cc3C2=O)c(Cl)c1OC		10.8 µM		10.9 µM	10.5 µM	10.7 µM	9.1 µM				10.6 µM	94%		9.5 µM	
COc1cccc(/C=C2\CCC/C(=C\c3cccc(OC)c3Cl)C2=O)c1Cl		6.4 µM		6.1 µM	6.9 µM	8.1 µM	6.5 µM				5.4 µM	90%		7.2 µM	
CCN(CC)CCO/N=C1\C(=C\c2cc(OC)c(OC)c(OC)c2Br)CCc2c(OC)ccc(OC)c21		2.2 µM		2.9 µM	2.7 µM	2.1 µM	2.2 µM				2.9 µM	95%		2.1 µM	
COc1cc(/C=C2\COC/C(=C\c3cc(OC)c(OC)c(OC)c3Br)C2=O)c(Br)c(OC)c1OC		4.6 µM		4.2 µM	4.9 µM	4.1 µM	4.3 µM				5 µM	92%		4.6 µM	
COc1cc2c(cc1OC)C(=O)/C(=C/c1cccc(OC)c1Cl)CC2		9.2 µM		10.4 µM	9.5 µM	9.2 µM	10.5 µM				9.2 µM	91%		9.9 µM	
COc1cc(/C=C2\CC(C)C/C(=C\c3cc(OC)c(OC)c(OC)c3Br)C2=O)c(Br)c(OC)c1OC (stereo unspecified)		1.1 µM		1.8 µM	1.6 µM	1.8 µM	1.3 µM				1.2 µM	91%		1.4 µM	
COc1ccc(/C=C2\CCc3ccc([N+](=O)[O-])cc3C2=O)c(Cl)c1OC		1.6 µM		1.9 µM	1.9 µM	1.9 µM	2.3 µM				1.8 µM	90%		1.7 µM	
COc1cc2c(cc1OC)C(=O)/C(=C/c1cc(OC)c(OC)c(OC)c1Br)CC2		2 µM		2.8 µM	2.6 µM	2.2 µM	2.8 µM				2.2 µM	98%		2.4 µM	
COc1cccc(/C=C2\CCc3ccc(F)cc3C2=O)c1Cl		12.6 µM		12.9 µM	12.4 µM	11.1 µM	12.9 µM				15.2 µM	90%		15.2 µM	
COc1cc(/C=C2\CN(Cc3ccccc3)C/C(=C\c3cc(OC)c(OC)c(OC)c3Br)C2=O)c(Br)c(OC)c1OC		14.6 µM		12 µM	12.2 µM	11.1 µM	12.8 µM				12.3 µM	91%		11.9 µM	
COc1ccc(/C=C2\CC(C)C/C(=C\c3ccc(OC)c(OC)c3Cl)C2=O)c(Cl)c1OC (stereo unspecified)		3.7 µM		2.9 µM	3.2 µM	4.4 µM	3.2 µM				2.9 µM	94%		3 µM	
COc1ccc(/C=C2\CCc3c(O)cccc3C2=O)c(Cl)c1OC		3.5 µM		3 µM	3.6 µM	3.3 µM	3.1 µM				3.8 µM	91%		3.2 µM	
COc1cccc(/C=C2\COC/C(=C\c3cccc(OC)c3Cl)C2=O)c1Cl		8.3 µM		8.8 µM	8.9 µM	8.4 µM	7.3 µM				7.4 µM	88%		8.7 µM	
COc1cccc(/C=C2\CCc3c(O)cccc3C2=O)c1Cl		5.2 µM		5.1 µM	4.2 µM	4.4 µM	4.4 µM				4.9 µM	96%		4.9 µM	
COc1cccc(/C=C2\CCc3ccc(Br)cc3C2=O)c1Cl		13.7 µM		14 µM	13.4 µM	13.3 µM	14.1 µM				12.9 µM	94%		12.8 µM	
COc1ccc2c(c1)CC/C(=C\c1cc(OC)c(OC)c(OC)c1Br)C2=O		1.5 µM		1.5 µM	1.4 µM	1.9 µM	1.9 µM				1.9 µM	90%		1.6 µM	
